Active and inactive are the calls of the source.

A short description of test [1]: cells. The format is functional.
Test [2] addresses T1, Polyadenylate-binding protein 1 (Homo sapiens, UniProt P11940). The experiment in a line: PABP1 MLLE–PAM2 interaction inhibitors, dose response, miRNA deadenylation inhibitor project, biochemical, fluorescence polarization, Cy5-PAM2 peptide, secondary (AID 602260). It is filed as functional. As to conditions: read-out: IC50_Mean. On the technique in general: Polarisation of emitted light reports the rotation of a fluorescent probe.

The target of test [3] is T1, Polyadenylate-binding protein 1. The experiment in a line: PABP1 MLLE–PAM2 binding inhibitor potency, dose response, biochemical, fluorescence polarization, FITC-PAM2 peptide (AID 602259). The format is functional. The note with it: read-out: IC50_Mean.
The next test addresses Nonstructural protein 1 (Influenza A virus, UniProt Q194T2). The format is functional, Influenza A virus (A/California/07/2009(H1N1)).
Test [4] can be described thus: cells. It is filed as functional, cell-based.
Test [5] can be described thus: cells. The format is functional, cell-based. This is another data set of the same source.
The next test has as its target Cytochrome P450 2C9 (Homo sapiens, UniProt P11712).
A further test deals with Cytochrome P450 2C19 (Homo sapiens, UniProt P33261). Description: Cytochrome panel assay with activity outcomes. Panel member name: p450-cyp2c19 Compounds with AC50 equal or less than 10 uM are considered active. It is filed as functional. The note with it: read-out: AC50.
Test [6] deals with T2, Short transient receptor potential channel 4 (Mus musculus, UniProt Q9QUQ5).
T2 sequence (Q9QUQ5 whole entry): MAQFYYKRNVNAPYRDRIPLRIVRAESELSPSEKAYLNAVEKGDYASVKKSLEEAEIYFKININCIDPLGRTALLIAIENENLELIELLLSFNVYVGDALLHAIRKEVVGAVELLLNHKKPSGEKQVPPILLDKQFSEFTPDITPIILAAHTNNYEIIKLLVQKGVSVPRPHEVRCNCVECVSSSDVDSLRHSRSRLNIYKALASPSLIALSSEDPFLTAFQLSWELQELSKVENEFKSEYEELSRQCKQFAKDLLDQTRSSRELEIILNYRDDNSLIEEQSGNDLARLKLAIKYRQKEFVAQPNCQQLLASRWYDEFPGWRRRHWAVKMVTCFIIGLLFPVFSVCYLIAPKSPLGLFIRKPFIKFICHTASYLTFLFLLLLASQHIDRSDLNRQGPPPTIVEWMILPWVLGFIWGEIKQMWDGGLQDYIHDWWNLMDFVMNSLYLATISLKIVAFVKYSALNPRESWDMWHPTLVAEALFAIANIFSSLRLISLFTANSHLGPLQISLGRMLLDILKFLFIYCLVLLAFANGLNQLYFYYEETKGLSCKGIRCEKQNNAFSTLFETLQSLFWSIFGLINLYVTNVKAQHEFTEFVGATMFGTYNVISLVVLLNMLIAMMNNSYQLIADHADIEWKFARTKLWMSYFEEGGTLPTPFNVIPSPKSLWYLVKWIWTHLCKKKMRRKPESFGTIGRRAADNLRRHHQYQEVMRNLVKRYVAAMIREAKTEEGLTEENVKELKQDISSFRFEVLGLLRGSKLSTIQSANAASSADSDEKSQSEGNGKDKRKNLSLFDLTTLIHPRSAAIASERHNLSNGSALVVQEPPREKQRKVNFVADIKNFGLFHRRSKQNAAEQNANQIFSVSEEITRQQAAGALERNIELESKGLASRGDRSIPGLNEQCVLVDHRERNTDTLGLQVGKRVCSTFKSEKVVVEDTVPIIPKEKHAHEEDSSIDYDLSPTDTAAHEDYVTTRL
Description: mouse TRPC4 channel inhibitors, dose response, cell-based, HEK293 TRPC4/mu-opioid, Fluo-4 calcium (AID 434942).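 Note: potency of inhibitors blocking the TRPC4 calcium response.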 It is filed as functional.

Test [7] is described as follows: HEp-2 cell cytotoxicity, dose response, cytotoxicity control for RSV inhibitor project, HTS (AID 2410). The note with it: human respiratory syncytial virus. It is filed as functional.
The target in test [8] is T3, Rac GTPase-activating protein 1 (Homo sapiens, UniProt Q9H0H5).
T3 sequence (Q9H0H5 whole entry): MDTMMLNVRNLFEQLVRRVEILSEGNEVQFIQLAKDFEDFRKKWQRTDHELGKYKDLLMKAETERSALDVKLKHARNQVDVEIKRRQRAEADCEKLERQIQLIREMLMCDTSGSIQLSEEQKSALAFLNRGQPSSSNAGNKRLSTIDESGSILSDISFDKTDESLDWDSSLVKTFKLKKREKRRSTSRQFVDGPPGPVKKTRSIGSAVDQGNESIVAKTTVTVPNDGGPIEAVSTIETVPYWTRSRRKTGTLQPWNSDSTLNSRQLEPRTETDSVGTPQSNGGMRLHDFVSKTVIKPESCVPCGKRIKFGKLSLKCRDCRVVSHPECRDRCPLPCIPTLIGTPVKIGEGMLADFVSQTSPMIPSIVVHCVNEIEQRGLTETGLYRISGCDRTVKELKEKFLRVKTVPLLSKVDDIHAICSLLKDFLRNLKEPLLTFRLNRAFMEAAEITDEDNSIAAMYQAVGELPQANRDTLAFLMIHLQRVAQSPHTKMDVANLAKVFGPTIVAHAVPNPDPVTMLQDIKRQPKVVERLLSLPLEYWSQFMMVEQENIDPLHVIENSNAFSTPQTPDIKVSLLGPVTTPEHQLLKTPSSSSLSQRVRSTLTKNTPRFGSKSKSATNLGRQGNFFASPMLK
Description: MgcRacGAP GTPase-activating activity inhibitors, confirmation, biochemical, ADP Hunter fluorescence, primary and confirmatory (AID 624330). It is filed as functional.

The target of another test is Cytochrome P450 3A4 (Homo sapiens, UniProt P08684).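 Note: CYP3A4 tested as one member of a cytochrome P450 panel screen.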
The target of another test is T4, Cytochrome P450 1A2 (Homo sapiens, UniProt P05177).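 Note: PubChem cytochrome P450 panel assay, CYP1A2 panel member.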
T4 sequence (P05177 whole entry): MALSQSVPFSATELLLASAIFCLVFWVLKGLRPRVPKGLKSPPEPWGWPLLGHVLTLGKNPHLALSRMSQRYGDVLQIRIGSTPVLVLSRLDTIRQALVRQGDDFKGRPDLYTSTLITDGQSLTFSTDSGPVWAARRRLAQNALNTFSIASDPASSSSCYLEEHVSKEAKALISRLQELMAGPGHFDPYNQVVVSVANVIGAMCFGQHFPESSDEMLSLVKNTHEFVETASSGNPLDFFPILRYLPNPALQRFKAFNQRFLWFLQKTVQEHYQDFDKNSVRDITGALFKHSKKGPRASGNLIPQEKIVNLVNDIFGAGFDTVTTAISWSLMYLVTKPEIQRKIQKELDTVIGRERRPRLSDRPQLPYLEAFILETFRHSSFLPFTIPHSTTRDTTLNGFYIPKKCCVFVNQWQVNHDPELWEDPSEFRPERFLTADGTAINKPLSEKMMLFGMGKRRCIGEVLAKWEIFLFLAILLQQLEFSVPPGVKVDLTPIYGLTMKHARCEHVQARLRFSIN

Test [9] in a line: Luminescence Cell-Based Dose Response HTS to Identify Inhibitors of 5'UTR Stem-Loop Driven Prion Protein mRNA Translation in H4 Neuroglioblastoma Cells. [Related pubchem assays: 1827 (Project Summary), 1813 (Primary HTS)]. The format is functional.
The nature of test [10]: control 3'UTR Renilla luciferase suppression, dose response, counter-screen for Shn3 inhibitor project, cell-based, Clone20-Shn3RL, cherry-picked (AID 624133). It is filed as functional. Background: A counterscreen serves to expose hits that act by an unwanted route or on another target.

Cytochrome P450 2C9, sequence (P11712 whole entry): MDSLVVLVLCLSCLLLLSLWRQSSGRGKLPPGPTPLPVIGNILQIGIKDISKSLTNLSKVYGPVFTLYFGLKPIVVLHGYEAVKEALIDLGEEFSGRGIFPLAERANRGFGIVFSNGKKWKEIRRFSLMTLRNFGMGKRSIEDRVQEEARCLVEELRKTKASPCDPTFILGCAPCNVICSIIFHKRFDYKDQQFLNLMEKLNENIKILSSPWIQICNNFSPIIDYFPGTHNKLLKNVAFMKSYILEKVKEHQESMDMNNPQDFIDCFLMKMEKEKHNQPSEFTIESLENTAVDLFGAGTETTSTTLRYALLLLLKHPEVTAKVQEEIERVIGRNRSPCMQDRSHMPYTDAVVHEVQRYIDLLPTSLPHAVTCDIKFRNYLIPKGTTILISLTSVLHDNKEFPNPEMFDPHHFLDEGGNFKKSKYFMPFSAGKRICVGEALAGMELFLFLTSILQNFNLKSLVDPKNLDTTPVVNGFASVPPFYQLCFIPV
T1 sequence (P11940 whole entry): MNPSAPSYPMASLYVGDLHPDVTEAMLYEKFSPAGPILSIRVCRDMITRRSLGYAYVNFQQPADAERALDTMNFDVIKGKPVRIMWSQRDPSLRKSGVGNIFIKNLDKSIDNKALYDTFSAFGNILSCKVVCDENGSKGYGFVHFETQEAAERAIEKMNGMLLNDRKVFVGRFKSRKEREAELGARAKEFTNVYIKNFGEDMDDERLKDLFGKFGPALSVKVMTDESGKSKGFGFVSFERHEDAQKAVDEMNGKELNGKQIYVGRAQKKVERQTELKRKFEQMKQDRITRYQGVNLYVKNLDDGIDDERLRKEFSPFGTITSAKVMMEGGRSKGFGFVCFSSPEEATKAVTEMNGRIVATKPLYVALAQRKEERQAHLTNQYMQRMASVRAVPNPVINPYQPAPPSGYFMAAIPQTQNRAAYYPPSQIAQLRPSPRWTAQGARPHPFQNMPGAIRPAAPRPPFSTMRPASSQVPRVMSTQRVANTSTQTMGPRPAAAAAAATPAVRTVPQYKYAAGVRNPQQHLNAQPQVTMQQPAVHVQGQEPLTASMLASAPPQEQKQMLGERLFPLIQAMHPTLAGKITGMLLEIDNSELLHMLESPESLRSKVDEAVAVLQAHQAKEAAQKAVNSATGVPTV
Nonstructural protein 1, sequence (Q194T2 whole entry): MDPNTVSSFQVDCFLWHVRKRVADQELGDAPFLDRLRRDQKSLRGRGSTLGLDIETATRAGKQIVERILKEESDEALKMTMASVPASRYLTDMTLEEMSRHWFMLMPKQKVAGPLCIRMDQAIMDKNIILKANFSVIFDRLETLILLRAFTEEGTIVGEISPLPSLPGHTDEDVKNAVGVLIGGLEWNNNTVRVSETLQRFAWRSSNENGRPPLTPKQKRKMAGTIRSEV
Cytochrome P450 2C19, sequence (P33261 whole entry): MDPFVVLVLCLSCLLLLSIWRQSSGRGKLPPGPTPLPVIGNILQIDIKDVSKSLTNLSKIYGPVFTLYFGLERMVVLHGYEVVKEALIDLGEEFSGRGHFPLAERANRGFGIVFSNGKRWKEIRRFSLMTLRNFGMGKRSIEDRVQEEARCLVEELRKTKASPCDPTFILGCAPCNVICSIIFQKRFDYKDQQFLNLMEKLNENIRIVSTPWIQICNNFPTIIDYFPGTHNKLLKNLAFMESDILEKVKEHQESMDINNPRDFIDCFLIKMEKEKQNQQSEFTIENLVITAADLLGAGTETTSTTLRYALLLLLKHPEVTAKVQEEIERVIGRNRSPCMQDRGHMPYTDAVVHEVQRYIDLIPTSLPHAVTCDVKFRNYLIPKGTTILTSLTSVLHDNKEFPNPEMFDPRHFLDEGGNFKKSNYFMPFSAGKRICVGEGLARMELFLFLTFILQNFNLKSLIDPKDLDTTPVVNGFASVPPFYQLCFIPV
Cytochrome P450 3A4, sequence (P08684 whole entry): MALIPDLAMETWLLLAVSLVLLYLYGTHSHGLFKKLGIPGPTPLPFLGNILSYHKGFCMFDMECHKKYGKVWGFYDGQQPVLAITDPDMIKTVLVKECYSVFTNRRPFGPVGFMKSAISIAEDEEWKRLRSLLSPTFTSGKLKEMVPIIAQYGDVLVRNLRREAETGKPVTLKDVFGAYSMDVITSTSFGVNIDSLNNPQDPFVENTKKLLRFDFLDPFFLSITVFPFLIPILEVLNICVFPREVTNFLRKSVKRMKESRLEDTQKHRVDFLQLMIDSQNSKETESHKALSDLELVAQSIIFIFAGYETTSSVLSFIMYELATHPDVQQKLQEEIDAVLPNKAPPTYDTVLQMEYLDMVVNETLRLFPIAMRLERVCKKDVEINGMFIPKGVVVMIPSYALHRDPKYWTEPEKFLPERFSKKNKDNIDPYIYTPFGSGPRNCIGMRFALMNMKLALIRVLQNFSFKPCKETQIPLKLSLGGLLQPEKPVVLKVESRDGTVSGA

Consider `O=C(COC(=O)c1ccccc1Cl)NCCC1=CCCCC1`, for which, in the test “cells [1]”, the IC50 is 29.9 µM (active).
In the case of `COc1cc2ccccc2cc1C(=O)NC(=S)Nc1cccc(C(=O)O)c1`, the IC50 in test [2] and in [3] was > 66 µM (inactive) throughout.
Regarding `O=C1/C(=C\c2ccc(-c3ccccc3[N+](=O)[O-])o2)C(c2ccccc2)=NN1c1ccccc1`, the IC50 at Nonstructural protein 1 was 21.3 µM (active).
One may read the EC50 as the concentration needed to bring the measured effect to its halfway point. On to `COC(=O)Cc1ccc(NC(S)=NC(C)(C)C)cc1`, for which the EC50 in “cells [4]” and in the test “cells [5]” was > 350 µM (not active) in each case.
Regarding `CCOc1ccc(NC(=S)NC(=O)c2c(Cl)c(C)nn2C)c([N+](=O)[O-])c1`, the IC50 in test [2] and in [3] was > 66 µM (inactive) each time.
For orientation: AC50 means the concentration giving half of the maximal activity seen. `Cc1noc(COc2ccc(OCc3nc(C)no3)cc2)n1`: the AC50 is 39.8 µM (inconclusive) on Cytochrome P450 2C9 and 17.8 µM (inconclusive) at Cytochrome P450 2C19.
Consider `COCCN=C(S)N(CCO)Cc1cc2cc3c(cc2nc1O)OCCO3`, for which the IC50 in test [2] and in test [3] was > 66 µM (inactive) in each case.
On to `CCOc1ccc(CN2CCN(C(=O)c3ccccc3)CC2)cc1`, for which the EC50 in test [6] is 6.68 µM (active).
A word on the CC50: it is the concentration at which the toxic effect on the cells reaches its halfway point. Turning to `CCOc1ccc2c(c1)c1nnc(SCC3CCCO3)nc1n2C` (stereo not drawn), the CC50 in test [7] is > 50 µM (active). Further, the values for the EC50 in the test “cells [4]” and in “cells [5]” were > 350 µM (not active) and 52.4 µM (active), respectively.
On to `O=c1c(=Nc2ccccc2O)c(=O)c2ccccc12`, for which the IC50 in the test “cells [1]” was 3.81 µM (active).
As to `CCOC(=O)C1CCN(C(=O)COC(=O)CSc2ccc([N+](=O)[O-])cc2)CC1`, the IC50 in test [2] and in test [3] was > 66 µM (inactive) in each case.
Consider `CC(C)C1=Nc2cccc3cccc(c23)N1`, for which the IC50 in test [8] is 26.3 µM (active). For the same compound, in test [6], the EC50 is 2.37 µM (active).
Turning to `Cc1ccc(N2C(=O)/C(=C/N3CCN(C(=O)c4ccco4)CC3)C(=O)NC2=S)cc1C`, the AC50 is 25.1 µM (inconclusive) on Cytochrome P450 3A4, 20 µM (inconclusive) on Cytochrome P450 2C9 and 39.8 µM (inconclusive) on Cytochrome P450 2C19.
Take `O=C(NCCCN1CCOCC1)c1ccc(NC(=O)C2COc3ccccc3O2)cc1` (stereo not drawn): in [6], the EC50 was 15 µM (active).
Regarding `O=C(Cc1ccc(F)cc1)N1CCN=C1SCc1ccc([N+](=O)[O-])cc1`, the IC50 in [2] and in test [3] was > 66 µM (inactive) throughout.
With `O/C(=C(\C([S-])=Nc1cccc2ccccc12)[n+]1ccccc1)c1cccs1`, the EC50 in the test “cells [4]” and in “cells [5]” was > 350 µM (not active) throughout.
With `CC(C)n1c(NCc2c[nH]c3ccccc23)nc2ccccc21`, the concentration for a half-maximal effect (EC50) in [6] was 1.68 µM (active).
Turning to `CN(C)/C=N/C(=O)c1cn(-c2ccc(F)cc2)c(=O)c2ccccc12`, the EC50 in “cells [4]” and in the test “cells [5]” was > 350 µM (not active) in each case.
Take `Cc1cccc(N(Cc2ccccc2)C(=O)CSC(C)C(=O)Nc2cc(C)on2)c1` (stereo not drawn): the EC50 in test [6] is 2.11 µM (active).
Consider `O=C(NC(=S)N1CCCC1)c1ccccc1F`, for which the IC50 in test [2] and in test [3] was > 66 µM (inactive) each time.
Regarding `CCn1c(N2CCC(Cc3ccccc3)CC2)nc2c1c(=O)[nH]c(=O)n2C`, the EC50 in the test “cells [4]” and in the test “cells [5]” was > 350 µM (not active) in each case.
As for `CC1CCCN(C(=O)c2ccc3c(c2NCCO)C(=O)c2ccccc2C3=O)C1` (stereo not drawn), the IC50 on Nonstructural protein 1 was 22 µM (active).
In the case of `CCC(SCC(=O)OC)C(=O)Nc1nnc(C(C)C)s1` (stereo not drawn), the IC50 in [2] and in test [3] was > 66 µM (inactive) throughout.
`CCCC(C)NC(=O)CN1C(=O)NC2(CCc3ccccc32)C1=O` (stereo not drawn): the EC50 in “cells [4]” and in the test “cells [5]” was > 350 µM (not active) in each case.
Consider `Cc1ccc(-c2cc(C(=O)Nc3cccnc3)[nH]n2)c(O)c1C`, for which the EC50 was > 350 µM (not active) in “cells [4]” and 7.01 µM (active) in the test “cells [5]”.
Turning to `O=C(CSc1nnnn1C1CCCC1)Nc1ccc(F)cc1`, the AC50 is 31.6 µM (inconclusive) on Cytochrome P450 2C9 and 25.1 µM (inconclusive) at Cytochrome P450 1A2.
As to `OC(COc1ccccc1)CN1C2=NCCCN2c2ccccc21` (stereo not drawn), the EC50 in [6] is 13.3 µM (active).
Same read-out and setting: the value for `Cc1ccc2cc(CN(CCN3CCOCC3)C(=O)NCc3ccccc3)c(O)nc2c1C` was 4.22 µM (active).
As for `COc1ccc(N2CCN(CCCNC(=O)c3cc4sccc4n3C)CC2)cc1`, the IC50 on Nonstructural protein 1 was 39.4 µM (active).
Consider `Cc1cccc(C(=O)Nc2nnc(-c3cccnc3)o2)c1`, for which the IC50 in “cells [1]” was 9.52 µM (active).
Turning to `Cc1cc(C)c(C(=O)N2CCCC(N3CCN(c4cccc(C(F)(F)F)c4)CC3)C2)o1` (stereo not drawn), the EC50 in “cells [4]” and in the test “cells [5]” was > 350 µM (not active) each time.
`Cn1nnc(NC(=S)NC(=O)c2cccc3c(Br)cccc23)n1`: the IC50 in [2] and in test [3] was > 66 µM (inactive) throughout.
Turning to `CC1CN=C(/C=C(\O)c2ccc(Br)cc2)C(=O)N1` (stereo not drawn), the 50% effective concentration (EC50) was 11.6 µM (inconclusive) in test [9], > 350 µM (not active) in “cells [4]” and 35.6 µM (active) in the test “cells [5]”.
As to `CC(C)(C)N(Cc1ccccc1)C(=O)COC(=O)CCc1c[nH]c2ccccc12`, in test [10], the AC50 is 25.9 µM (active).

These data come from ChEMBL document CHEMBL1201862, “PubChem BioAssay data set” (2004).
